Test system: rice seedlings (hybrid rice variety ADT45)
Assay: Phytotoxicity assessments at Kumbakonam trial
Assay type: in vivo
Settings: for Greenness at 3.2 leaf / Seedling height at 3.2 leaf / Seedling injury / Time to 3.2 leaf / Uniformity of foliage growth at 3.2 leaf / Uniformity of greening at 3.2 leaf / Whiteness of root mat at 3.2 leaf: Kumbakonam
Experimental: For each trial, hybrid rice variety ADT45 was sown in seedling boxes. A compound of formula (Ia) was applied by foliar spray in the form of an EC formulation, at various dose rates and seedling growth stages as shown in Table 1. [table] […] The trial was carried out between 7 May 2015 and 15 Jun. 2015, with transplanting on 29 May 2015. The mean maximum daily temperature during the trial period was 37.3° C., and mean minimum daily temperature during the trial period was 24.9° C. The mean temperature during the entire trial period was 31.1° C.

[1] = treatment 2: 5 g ai/ha, Pigeon-breast
[2] = treatment 3: 10 g ai/ha, Pigeon-breast
[3] = treatment 4: 20 g ai/ha, Pigeon-breast
[4] = treatment 6: 10 g ai/ha, 2-leaf
[5] = treatment 7: 20 g ai/ha, 2-leaf
[6] = treatment 9: 10 g ai/ha, 3-leaf
[7] = treatment 10: 20 g ai/ha, 3-leaf

COc1cccc(Nc2nc(F)nc3[nH]cnc23)c1 [Formula Ia]
Phytotoxic effects to the rice seedlings (summary) (Kumbakonam trial, some marginal effects at the highest dose rate): did not cause any phytotoxic effects | Greenness at 3.2 leaf [1]: 3 unit | Seedling height at 3.2 leaf [1]: 14 cm | Seedling injury [1]: 0% | Time to 3.2 leaf [1]: 14 days | Uniformity of foliage growth at 3.2 leaf [1]: 90% | Uniformity of greening at 3.2 leaf [1]: 95% | Whiteness of root mat at 3.2 leaf [1]: 90% | Greenness at 3.2 leaf [2]: 3 unit | Seedling height at 3.2 leaf [2]: 13 cm | Seedling injury [2]: 0% | Time to 3.2 leaf [2]: 14 days | Uniformity of foliage growth at 3.2 leaf [2]: 90% | Uniformity of greening at 3.2 leaf [2]: 95% | Whiteness of root mat at 3.2 leaf [2]: 90% | Greenness at 3.2 leaf [3]: 3 unit | Seedling height at 3.2 leaf [3]: 13 cm | Seedling injury [3]: 0% | Time to 3.2 leaf [3]: 14 days | Uniformity of foliage growth at 3.2 leaf [3]: 90% | Uniformity of greening at 3.2 leaf [3]: 95% | Whiteness of root mat at 3.2 leaf [3]: 90% | Greenness at 3.2 leaf (treatment 5: 5 g ai/ha, 2-leaf): 3 unit | Seedling height at 3.2 leaf (treatment 5: 5 g ai/ha, 2-leaf): 14 cm | Seedling injury (treatment 5: 5 g ai/ha, 2-leaf): 0% | Time to 3.2 leaf (treatment 5: 5 g ai/ha, 2-leaf): 13 days | Uniformity of foliage growth at 3.2 leaf (treatment 5: 5 g ai/ha, 2-leaf): 95% | Uniformity of greening at 3.2 leaf (treatment 5: 5 g ai/ha, 2-leaf): 95% | Whiteness of root mat at 3.2 leaf (treatment 5: 5 g ai/ha, 2-leaf): 85% | Greenness at 3.2 leaf [4]: 2.8 unit | Seedling height at 3.2 leaf [4]: 14 cm | Seedling injury [4]: 3% | Time to 3.2 leaf [4]: 13 days | Uniformity of foliage growth at 3.2 leaf [4]: 90% | Uniformity of greening at 3.2 leaf [4]: 90% | Whiteness of root mat at 3.2 leaf [4]: 85% | Greenness at 3.2 leaf [5]: 2.5 unit | Seedling height at 3.2 leaf [5]: 14 cm | Seedling injury [5]: 8% | Time to 3.2 leaf [5]: 13 days | Uniformity of foliage growth at 3.2 leaf [5]: 90% | Uniformity of greening at 3.2 leaf [5]: 85% | Whiteness of root mat at 3.2 leaf [5]: 85% | Greenness at 3.2 leaf (treatment 8: 5 g ai/ha, 3-leaf): 3 unit | Seedling height at 3.2 leaf (treatment 8: 5 g ai/ha, 3-leaf): 14 cm | Seedling injury (treatment 8: 5 g ai/ha, 3-leaf): 0% | Time to 3.2 leaf (treatment 8: 5 g ai/ha, 3-leaf): 13 days | Uniformity of foliage growth at 3.2 leaf (treatment 8: 5 g ai/ha, 3-leaf): 90% | Uniformity of greening at 3.2 leaf (treatment 8: 5 g ai/ha, 3-leaf): 95% | Whiteness of root mat at 3.2 leaf (treatment 8: 5 g ai/ha, 3-leaf): 90% | Greenness at 3.2 leaf [6]: 3 unit | Seedling height at 3.2 leaf [6]: 14 cm | Seedling injury [6]: 0% | Time to 3.2 leaf [6]: 13 days | Uniformity of foliage growth at 3.2 leaf [6]: 90% | Uniformity of greening at 3.2 leaf [6]: 95% | Whiteness of root mat at 3.2 leaf [6]: 90% | Greenness at 3.2 leaf [7]: 2.5 unit | Seedling height at 3.2 leaf [7]: 14 cm | Seedling injury [7]: 15% | Time to 3.2 leaf [7]: 13 days | Uniformity of foliage growth at 3.2 leaf [7]: 90% | Uniformity of greening at 3.2 leaf [7]: 85% | Whiteness of root mat at 3.2 leaf [7]: 85%
